Non-standard residues stand in square brackets, D forms with d. Residues, ends and D or L forms follow the SMILES beside them.
Experiments:
HIV-1IIIB = assay: HIV-1 antiviral assay (CPE reduction, MTS); format: cell-based; details: peptide 10 micrograms per ml, 6 days post-infection
[1] = system: Human Peripheral Blood Mononuclear Cells (PBMC); assay: T cell proliferation assay (PHA, 3H-thymidine); format: cell-based; details: peptide 10 micrograms per ml, 3H-thymidine incorporation
Protocol: Human Peripheral Blood Mononuclear Cells (PBMC) were obtained from normal human donors. The T cell proliferation was induced by stimulation of the cells with the T cell mitogen phytohemagglutinin (PHA), either in the absence (positive proliferation control), or in the presence of test peptide—10 micrograms per ml—to examine their effects on the T cell proliferating response. 10^5/well PBMC were plated in 96-well microtiter plates and assayed in duplicate with the peptide. Cell cultures were incubated at 37° C. for 3 days in a 5% CO2 incubator and were thereafter pulsed with 1 microCi/well ^3H-thymidine for additional 12 hours of culture. At the end of incubation time, the plates were harvested and the cells counted by liquid scintillation for the incorporation of ^3H-thymidine as a measure of T cell proliferation.

RAW 264.7 cells = assay: Phagocytosis assay (Fluorescein-labeled Escherichia coli, flow cytometry); format: cell-based, mouse; details: peptide 10 micrograms per ml, 30 min preincubation, 60 min ingestion
Protocol: RAW 264.7 (Mouse leukaemic monocyte macrophage cell line) cells were obtained from ATCC and grown in RPMI 1640 medium containing 10% FBS. Cells were incubated in 12×75 mm tubes at 37° C. with test peptide—10 micrograms per ml—for 30 min prior to adding Fluorescein-labeled Escherichia coli bacteria as the agent to be ingested. After the cells were incubated for additional 60 min at 37° C. and allowed to ingest the Fluorescein-labeled Escherichia coli bacteria, cells were fixed with 1% paraformaldehyde. The samples were then analyzed by flow cytometry to determine the amount of phagocytosis as a function of brightness (the greater the phagocytic activity, the more fluorescence in the macrophage population). Data are reported as % positive and the mean fluorescence intensity (MFI) of positively stained cells.

A549 cells = assay: Apoptosis induction assay (Annexin-5); format: cell-based, human; details: apoptosis induction in A549 cells, 24 hours exposure
Excerpt: Human A549 cells (carcinomic human alveolar basal epithelial cells) were utilized in the experiments employing the Annexin-5 apoptosis assay. Annexin-5 is a member of a highly conserved protein family that binds acidic phospholipids in a calcium-dependent manner. […] Phosphatidylserine is translocated from the inner side of the plasma membrane to the outer layer when cells undergo death by apoptosis or cell necrosis and serves as a signal by which cell destined for death are recognized by phagocytes. Test peptide—[…]—were exposed for 24 hours to the A549 cells before they were analyzed for signs of apoptosis.

spleen cells = assay: Th1/Th2 cytokine profiling assay (Ovalbumin restimulated spleen cells, CBA kit); format: cell-based, Balb/c mice; details: peptide 10 micrograms per ml; Ovalbumin 10 micrograms/ml restimulation; 72 hours
Excerpt: The Balb/c mice (originated in 1923, it is a popular strain and is used in many different research disciplines. Also classified as an inbred from the production of 20 or more successive brother-sister matings, the Balb/c mouse is albino and small in size) were immunized on Days 1, 15, and 29 with Ovalbumin (Ovalbumin is the main protein found in egg white, commonly used to stimulate an immunological reaction in test animals) in PBS (5 micrograms/injection). On day 50, spleens of the mice were harvested (3 weeks after last boost with Ovalbumin). Cells were cultured (2×10^5/well in triplicate) and incubated with culture medium or test peptide—10 micrograms per ml—for 30 min. Thereafter, additional Ovalbumin was added to the cells at 10 micrograms/ml for in vitro restimulation of the cells. 72 hours later, cell supernatants were harvested and assayed using the Becton Dickinson Mouse Th1/Th2 Cytokine CBA Kit. This kit can be used to measure Interleukin-2 (IL-2), Interleukin-4 (IL-4), Interleukin-5 (IL-5), Interferon-γ (IFN-γ), and Tumor Necrosis Factor-α (TNF-α) protein levels in a single sample. The kit performance has been optimized for analysis of physiologically relevant concentrations ([…] levels) of specific cytokine proteins in tissue culture supernatants and serum samples.

TNF alpha = TNF alpha production assay (LPS-stimulated macrophages, ELISA); format: cell-based, human; details: macrophages from PBMC, peptide 10 micrograms per ml, lipopolysaccharide 200 ng/ml, overnight
Protocol: Human Peripheral Blood Mononuclear Cells (PBMC) were obtained from normal human donors. The macrophages were prepared by adherence of PBMC to the plastic wells of the plates. After 8 days in culture in the presence of recombinant human macrophage-colony stimulating factor at 2 ng/ml, differentiated macrophages were preincubated with test peptide—10 micrograms per ml—for 30 min, followed by in-well stimulation by the addition of lipopolysaccharide at a final concentration of 200 ng/ml. Not stimulated macrophages served as negative background control.
After overnight incubation, supernatants from the control and LPS-stimulated cultures were harvested and assayed for TNF alpha production employing a TNF alpha specific ELISA.

[2] = system: Primary Human endothelial cells (HUVEC); assay: Endothelial cell migration assay; format: cell-based; details: peptide 10 micrograms per ml, 22 hours
Protocol: Endothelial cell migration is a prerequisite for the process of neo-vascularization or angiogenesis which is crucial for on-site recruitment of blood vessel formation. Primary Human endothelial cells (HUVEC) were seeded in insert chambers with 3 micrometer pore size of multi-transwell plate for 6 hours at 37° C. in Endothelial Cell Basal Medium (EBM) supplemented with 0.1% bovine serum albumin. Thereafter, designated concentration of test peptide—10 micrograms per ml—was added in duplicate wells. The endothelia were allowed to migrate for 22 hours at 37° C., then, migrated cells were fixed and stained with Hoechst 33342 dye. Images of 3 fields per insert were taken and the number of migrated cells per field were quantified using the ImageProPlus software. Data were analyzed for the average number of the migrated cells and standard deviation of six data points for each treatment condition. Active test peptide against HUVEC migration was determined based on 50% inhibition of migrated cells as compared with the control. Statistic p values were computed using the Student's t-test.

in vitro = details: human
HCMV strain AD169 = assay: HCMV plaque reduction assay in MRC-5 cells; details: HCMV in MRC-5 cells; peptide 10 micrograms per ml; 7-10 days
[3] = Cytotoxicity in HIV-1 assay (MTS cell viability); details: human, CEM-SS cells (uninfected, cells plus peptide only)
[4] = Cytotoxicity in HCMV assay (CellTiter 96 cell viability); details: human, MRC-5 cells (embryonal lung fibroblasts)
Protocol: For cytotoxicity testing, MRC-5 cells were seeded at 2,500 cells/well in 96 well plates using growth medium. […] The following day, peptide was added and tested in duplicates. After a 6 days incubation period, cell viability was measured using CellTiter 96 Solution (Promega). Plates were incubated for additional 4 hours at 37° C. Adhesive plate sealers were used in place of lids, the sealed plates were inverted several times to mix the soluble formazan product and the plate was read spectrophotometrically at 490/560 nm with a Molecular Devices Vmax plate reader.

[5] = system: hepatitis B virus (HBV) ayw strain; assay: HBV assay, secreted HBV DNA by TaqMan PCR in HepG2-2.2.15; details: peptide 10 micrograms per ml; six days; HBV DNA in supernatant

SMILES: CC(C)C[C@H](NC(=O)[C@H](CC(C)C)NC(=O)[C@@H](Cc1c[nH]c2ccccc12)NC(=O)[C@H](Cc1ccccc1)NC(=O)[C@@H](Cc1c[nH]c2ccccc12)NC(=O)[C@H](CCC(N)=O)NC(=O)[C@H](CCC(N)=O)NC(=O)[C@@H]1CCCN1C(=O)[C@H](CCCCN)NC(=O)[C@@H]1CCCN1C(=O)[C@@H](CCCNC(=N)N)NC(=O)[C@@H]1CCCN1C(=O)CNC(=O)[C@H](CC(C)C)NC(=O)[C@H](CC(C)C)NC(=O)[C@H](Cc1ccc(O)cc1)NC(=O)CNC(=O)[C@H](C)NC(=O)[C@H](CO)NC(=O)[C@H](CC(N)=O)NC(=O)[C@H](CC(C)C)NC(=O)[C@@H](NC(=O)[C@H](Cc1c[nH]c2ccccc12)NC(=O)CN)[C@@H](C)O)C(N)=O [Spantide-I, Gly-Trp-Thr-Leu-Asn-Ser-Ala-Gly-Tyr-Leu-Leu-Gly-Pro-D-Arg-Pro-Lys-Pro-Gln-Gln-D-Trp-Phe-D-Trp-Leu-Leu-NH2] (H-GWTLNSAGYLLGP[dR]PKPQQ[dW]F[dW]LL-NH2)
- % CPE reduction in HIV-1 infected CEM-SS cells (HIV-1IIIB): 0.0%
- % of PHA induced control [1]: 96.3%
- % of control phagocytosis (RAW 264.7 cells): 102.9%
- % of induction (A549 cells): 1.4%
- IFNγ spleen cells; TH1 response (% of control) (spleen cells): 43.1 % of control
- IL-2 spleen cells (% of control) (spleen cells): 25.9 % of control
- IL-4 spleen cells; TH2 response (% of control) (spleen cells): 40.5 % of control
- IL-5 spleen cells; TH2 response (% of control) (spleen cells): 64.5 % of control
- TNF-a spleen cells; TH1 response (% of control) (spleen cells): 61.9 % of control
- % of LPS induction (TNF alpha): 101.4%
- % inhibition of migration [2]: −25%
- viability at 144 h, 10 micrograms per ml (in vitro): 100%
- % plaque reduction (HCMV strain AD169): 0.0%
- viability at 10 micrograms per ml [3]: 100%
- viability at 144 h [4]: 100%
- % inhibition of HBV replication in HEP G2 cells [5]: 14.1%

Reference: patent US20100204129A1, “USE OF A PEPTIDE AS A THERAPEUTIC AGENT” (priority 2008, published 2010)
